ChEMBL document CHEMBL1201862, “PubChem BioAssay data set” (2004)
Activity calls are given as the source filed them.

What was measured:
[1] = target: Sphingosine 1-phosphate receptor 2 (Homo sapiens, UniProt O95136); assay: Dose Response Cell Based Assay for Agonists of the S1P2 Receptor of Purchased Analogues. [Related pubchem assays: 729, 843, 854, 736 ]; assay type: functional
NADPH oxidase 1 = NADPH oxidase 1 (Homo sapiens, UniProt Q9Y5S8); assay type: functional, cell-based;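 also: Cell-based assay with luminescence read-out, IC50 derived from inhibitor dose-response curves; intracellular ROS from endogenous NOX1 in intact HT29 colon cancer cells; potency of inhibitors that lower the ROS luminescence signal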
[2] = target: T1, E3 ubiquitin-protein ligase XIAP (Homo sapiens, UniProt P98170); assay: Counter Screen using XIAP-Bir3 for Chemical Antagonists of Bir1/2 domains of IAP-family anti-apoptotic proteins. [Related pubchem assays (depositor defined):AID1018, AID1449, AID1514, AID1638, AID1749, AID1750, AID488957, AID488963]
[3] = target: T1, E3 ubiquitin-protein ligase XIAP; assay: small molecules displacing peptide from XIAP – biochemical, IAP family, fluorescence polarization (AID 1018); assay type: functional
Procathepsin L = Procathepsin L (Homo sapiens, UniProt P07711); assay: CTSL1 protease inhibition – biochemical, QFRET, 1536-well, counter-screen for M1/M17 aminopeptidase inhibitor project, dose response (AID 2214)
Leucine aminopeptidase = target: T2, Leucine aminopeptidase (Plasmodium falciparum 3D7, UniProt Q8IL11); assay: P. falciparum M17LAP inhibitors, primary screen, biochemical, fluorogenic H-Leu-NHMec substrate, 1536-well (AID 1619); assay type: functional
T2 sequence (Q8IL11 whole entry): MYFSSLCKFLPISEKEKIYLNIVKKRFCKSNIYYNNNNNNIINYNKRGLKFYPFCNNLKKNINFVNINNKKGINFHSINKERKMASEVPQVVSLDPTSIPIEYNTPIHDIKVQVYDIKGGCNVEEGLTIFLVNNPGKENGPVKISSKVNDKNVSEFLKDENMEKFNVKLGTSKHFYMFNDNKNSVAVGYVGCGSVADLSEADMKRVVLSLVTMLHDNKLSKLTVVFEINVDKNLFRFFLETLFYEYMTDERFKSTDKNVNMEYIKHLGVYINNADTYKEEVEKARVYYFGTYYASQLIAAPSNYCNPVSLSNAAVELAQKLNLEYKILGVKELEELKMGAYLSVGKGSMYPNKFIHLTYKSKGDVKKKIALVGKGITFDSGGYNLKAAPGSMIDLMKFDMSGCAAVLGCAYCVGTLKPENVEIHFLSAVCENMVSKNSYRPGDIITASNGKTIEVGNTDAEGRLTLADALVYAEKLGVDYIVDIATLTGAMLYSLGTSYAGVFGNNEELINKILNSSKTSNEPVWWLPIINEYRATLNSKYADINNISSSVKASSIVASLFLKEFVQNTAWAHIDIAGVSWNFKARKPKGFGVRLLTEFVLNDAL

Aspartyl aminopeptidase = target: T3, Aspartyl aminopeptidase (Plasmodium falciparum 3D7, UniProt Q8I2J3); assay: Counterscreen for inhibitors of M1 and M17 aminopeptidases: QFRET-based biochemical high throughput dose response assay for inhibitors of the Plasmodium falciparum M18 Aspartyl Aminopeptidase (PFM18AAP). [Related PubChem assays: 1619 (Screening assay (M17LAP inhibitors).), 1445 (Screening assay (M1AAP inhibitors).)]
T3 sequence (Q8I2J3 whole entry): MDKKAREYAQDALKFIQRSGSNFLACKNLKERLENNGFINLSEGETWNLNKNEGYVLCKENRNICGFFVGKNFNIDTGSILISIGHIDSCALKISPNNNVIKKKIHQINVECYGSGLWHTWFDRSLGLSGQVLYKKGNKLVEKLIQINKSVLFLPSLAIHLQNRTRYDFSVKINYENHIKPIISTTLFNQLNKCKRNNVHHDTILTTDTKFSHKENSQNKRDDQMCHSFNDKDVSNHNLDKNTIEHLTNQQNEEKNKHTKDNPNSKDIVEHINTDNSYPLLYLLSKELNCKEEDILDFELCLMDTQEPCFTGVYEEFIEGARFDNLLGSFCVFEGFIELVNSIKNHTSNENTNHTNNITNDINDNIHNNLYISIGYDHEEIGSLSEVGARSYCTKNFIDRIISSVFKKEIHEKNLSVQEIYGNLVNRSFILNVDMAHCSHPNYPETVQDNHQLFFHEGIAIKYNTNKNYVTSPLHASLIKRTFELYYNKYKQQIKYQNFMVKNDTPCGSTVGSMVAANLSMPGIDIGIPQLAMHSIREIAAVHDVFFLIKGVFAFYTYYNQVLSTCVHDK

[4] = target: T4, Replicative DNA helicase DnaB (Mycobacterium tuberculosis, UniProt P9WMR3); assay: DnaB intein splicing inhibitors, dose response, biochemical, cell-free fluorescence (AID 449749); assay type: functional
T4 sequence (P9WMR3 whole entry): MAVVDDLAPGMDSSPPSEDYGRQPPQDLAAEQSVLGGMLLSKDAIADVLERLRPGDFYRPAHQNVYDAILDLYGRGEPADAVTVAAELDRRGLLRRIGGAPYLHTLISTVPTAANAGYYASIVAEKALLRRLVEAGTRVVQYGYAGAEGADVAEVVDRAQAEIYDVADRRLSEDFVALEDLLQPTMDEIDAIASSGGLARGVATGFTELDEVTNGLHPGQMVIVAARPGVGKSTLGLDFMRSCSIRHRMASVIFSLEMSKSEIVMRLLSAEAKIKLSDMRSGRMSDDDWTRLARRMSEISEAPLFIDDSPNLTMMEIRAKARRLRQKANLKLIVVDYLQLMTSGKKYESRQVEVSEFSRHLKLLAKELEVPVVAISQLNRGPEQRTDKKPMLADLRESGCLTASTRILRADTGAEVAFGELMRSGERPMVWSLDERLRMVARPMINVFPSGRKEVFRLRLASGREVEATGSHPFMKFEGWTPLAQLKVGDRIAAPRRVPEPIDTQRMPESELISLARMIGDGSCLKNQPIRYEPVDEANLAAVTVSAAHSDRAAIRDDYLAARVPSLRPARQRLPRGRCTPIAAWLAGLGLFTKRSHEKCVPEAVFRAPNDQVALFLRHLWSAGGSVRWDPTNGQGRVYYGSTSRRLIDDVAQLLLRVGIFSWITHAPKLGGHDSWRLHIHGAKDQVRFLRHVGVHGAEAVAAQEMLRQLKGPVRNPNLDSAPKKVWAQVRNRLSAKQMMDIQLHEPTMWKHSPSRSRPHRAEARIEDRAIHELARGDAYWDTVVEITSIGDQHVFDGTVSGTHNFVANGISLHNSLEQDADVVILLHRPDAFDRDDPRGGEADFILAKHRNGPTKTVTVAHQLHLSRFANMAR

Protein RecA = target: T5, Protein RecA (Mycobacterium tuberculosis, UniProt P9WHJ3); assay: Fluorescence Cell-Free Homogeneous Dose Retest to Identify Inhibitors of RecA-Intein Splicing Activity. [Related pubchem assays (depositor defined):AID2097, AID2223, AID489010, AID492950]; assay type: functional
T5 sequence (P9WHJ3 whole entry): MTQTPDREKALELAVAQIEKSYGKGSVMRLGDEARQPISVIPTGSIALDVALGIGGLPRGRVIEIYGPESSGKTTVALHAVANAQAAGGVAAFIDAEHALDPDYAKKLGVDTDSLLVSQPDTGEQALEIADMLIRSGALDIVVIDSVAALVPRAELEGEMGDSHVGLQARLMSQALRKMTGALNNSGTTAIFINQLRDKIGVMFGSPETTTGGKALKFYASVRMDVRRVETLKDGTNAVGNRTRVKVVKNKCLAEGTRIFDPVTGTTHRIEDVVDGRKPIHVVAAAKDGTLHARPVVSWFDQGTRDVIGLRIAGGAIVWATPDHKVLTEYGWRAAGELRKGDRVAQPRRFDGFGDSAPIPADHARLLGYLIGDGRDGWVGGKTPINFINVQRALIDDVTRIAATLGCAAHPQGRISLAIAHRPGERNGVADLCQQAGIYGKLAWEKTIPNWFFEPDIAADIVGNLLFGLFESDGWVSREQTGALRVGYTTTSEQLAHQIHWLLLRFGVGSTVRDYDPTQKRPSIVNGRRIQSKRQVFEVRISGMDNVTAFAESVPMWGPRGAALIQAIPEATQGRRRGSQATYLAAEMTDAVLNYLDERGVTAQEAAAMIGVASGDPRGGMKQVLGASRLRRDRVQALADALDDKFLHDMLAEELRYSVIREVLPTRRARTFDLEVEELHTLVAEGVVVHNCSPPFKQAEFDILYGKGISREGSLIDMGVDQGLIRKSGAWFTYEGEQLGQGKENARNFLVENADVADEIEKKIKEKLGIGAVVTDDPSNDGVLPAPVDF

[5] = HEK-293T viability loss, compound-treated – cell-based, uHTS hits, cytotoxicity control for B/T-cell NF-kB inhibitor project, dose response (AID 489019); assay type: functional;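 also: IC50 reflects cytotoxicity as loss of cell viability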
[6] = general cell-killing toxicity readout – plate reader, dry powder samples, cytotoxicity control for PAX8 inhibitor project, dose response (AID 743021); assay type: functional, cell-based
[7] = target: T6, Heat shock factor protein 1 (Mus musculus, UniProt P38532); assay: decrease of HSF1-responsive luciferase luminescence – cell-based, NIH3T3, dose retest, confirmation (AID 2382); assay type: functional;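 also: NIH3T3 fibroblasts with HSF1-driven luciferase reporter stressed by proteasome inhibitor MG132; luminescence from HSF1-driven luciferase expression after 8 hours of MG132 stress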
T6 sequence (P38532 whole entry): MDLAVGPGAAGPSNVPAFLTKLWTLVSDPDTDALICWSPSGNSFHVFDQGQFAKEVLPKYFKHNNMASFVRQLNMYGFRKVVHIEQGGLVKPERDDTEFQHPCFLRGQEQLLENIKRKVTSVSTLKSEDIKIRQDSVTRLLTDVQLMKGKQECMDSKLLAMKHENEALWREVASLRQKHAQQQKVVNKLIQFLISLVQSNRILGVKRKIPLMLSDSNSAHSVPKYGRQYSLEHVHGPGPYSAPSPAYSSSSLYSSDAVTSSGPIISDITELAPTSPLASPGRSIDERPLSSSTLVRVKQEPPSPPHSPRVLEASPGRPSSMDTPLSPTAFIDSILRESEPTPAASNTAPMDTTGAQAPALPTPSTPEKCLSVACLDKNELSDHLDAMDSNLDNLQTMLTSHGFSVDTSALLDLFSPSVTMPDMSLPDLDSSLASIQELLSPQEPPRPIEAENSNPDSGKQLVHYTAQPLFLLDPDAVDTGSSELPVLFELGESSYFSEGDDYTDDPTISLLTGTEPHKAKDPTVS

[8] = NIH3T3 cell viability loss – ATP luminescence, mouse fibroblasts, counter-screen, dose response (AID 2010); assay type: functional, cell-based;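 also: cells exposed to compound for about 90 hours before reading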
[9] = Trypanosoma cruzi growth suppression in host cells – NIH3T3 host cells, beta-gal luminescence, confirmation (AID 2044); assay type: functional, cell-based;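 also: intracellular parasites grown in NIH/3T3 mouse fibroblasts as host cells; luminescent beta-galactosidase reporter signal from transgenic T. cruzi replicating inside host cells; inhibitors lower the luminescence signal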
[10] = Luminescent dose response cell-based high throughput screening assay for inhibitors of the Janus kinase 2 mutant JAK2V617F. [Related pubchem assays: 1446 (Primary screen.), 1521 (Confirmation assay.), 1486 (Counter screen.)]; assay type: functional
Paired box protein Pax-8 = Paired box protein Pax-8 (Homo sapiens, UniProt Q06710); assay: PAX8 transcriptional activity inhibition in RMG-I – RMG-I cells, luciferase, cherry-pick, dose response (AID 687027); assay type: functional, cell-based;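 also: luciferase reporter driven by Pax8 target thyroperoxidase promoter measured by SteadyGlo luminescence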
Jurkat = assay: blockers of NF-kB activation in T cells – Jurkat, luciferase reporter, luminescence, B- and T-cell, dose response (AID 489004); assay type: functional, cell-based; conditions: Homo sapiens;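 also: NF-kB luciferase reporter Jurkat cells stimulated with PMA plus ionomycin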
[11] = Luminescence Cell-Based Dose Response to Identify Activators of 5'UTR Stem-Loop Driven Prion Protein mRNA Translation in H4-C Neuroglioblastoma Cells. [Related pubchem assays: 1829 (Project Summary), 1814 (Primary HTS)]; assay type: functional
[12] = Luminescence Cell-Based Dose Confirmation to Identify Activators of 5'UTR Stem-Loop Driven Alpha-Synuclein mRNA Translation in H4 Neuroglioblastoma Cells. [Related pubchem assays: 1829 (Project Summary), 1814 (Primary HTS)]; assay type: functional
[13] = Luminescence Cell-Based Dose Response to Identify Activators of Luciferase Translation or Activity in H4-C Neuroglioblastoma Cells. [Related pubchem assays: 1829 (Project Summary), 1814 (Primary HTS)]; assay type: functional
H4 = assay: Luminescence Cell-Based Dose Response HTS to Identify Activators of 5'UTR Stem-Loop Driven Prion Protein mRNA Translation in H4 Neuroglioblastoma Cells. [Related pubchem assays: 1829 (Project Summary), 1814 (Primary HTS)]; assay type: functional; conditions: Homo sapiens
[14] = Luminescence Cell-Based Dose Response HTS to Identify Activators of Luciferase Translation or Activity in H4 […] Cells. [Related pubchem assays: 1829 (Project Summary), 1814 (Primary HTS)]; assay type: functional

T1 sequence (P98170 whole entry): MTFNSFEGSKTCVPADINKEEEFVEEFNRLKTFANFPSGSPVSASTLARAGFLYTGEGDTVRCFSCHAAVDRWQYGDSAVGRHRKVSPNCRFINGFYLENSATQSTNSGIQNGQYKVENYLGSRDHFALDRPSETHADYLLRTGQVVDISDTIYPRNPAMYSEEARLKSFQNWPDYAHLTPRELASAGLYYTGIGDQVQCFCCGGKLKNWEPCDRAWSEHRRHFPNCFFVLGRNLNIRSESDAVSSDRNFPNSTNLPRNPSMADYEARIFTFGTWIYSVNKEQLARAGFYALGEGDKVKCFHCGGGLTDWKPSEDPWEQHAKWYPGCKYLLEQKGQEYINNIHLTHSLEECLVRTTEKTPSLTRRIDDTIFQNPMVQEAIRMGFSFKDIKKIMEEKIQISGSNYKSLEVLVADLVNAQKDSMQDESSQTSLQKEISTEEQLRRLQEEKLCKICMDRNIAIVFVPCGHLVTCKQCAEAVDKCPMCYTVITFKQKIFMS
Chain of Paired box protein Pax-8 (Q06710 whole entry): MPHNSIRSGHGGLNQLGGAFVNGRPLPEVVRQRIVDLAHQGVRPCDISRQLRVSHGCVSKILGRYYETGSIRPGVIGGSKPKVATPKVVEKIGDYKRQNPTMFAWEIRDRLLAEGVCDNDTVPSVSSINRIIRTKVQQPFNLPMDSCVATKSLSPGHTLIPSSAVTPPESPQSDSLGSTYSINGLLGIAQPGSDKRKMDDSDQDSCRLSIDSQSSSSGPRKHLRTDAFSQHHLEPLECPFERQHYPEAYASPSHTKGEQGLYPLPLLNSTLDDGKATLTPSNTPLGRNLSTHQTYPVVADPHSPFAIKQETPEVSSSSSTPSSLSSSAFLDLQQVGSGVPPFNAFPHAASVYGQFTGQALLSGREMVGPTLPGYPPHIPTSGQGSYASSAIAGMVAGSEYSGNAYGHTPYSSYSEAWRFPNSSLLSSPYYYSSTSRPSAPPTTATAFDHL
Chain of NADPH oxidase 1 (Q9Y5S8 whole entry): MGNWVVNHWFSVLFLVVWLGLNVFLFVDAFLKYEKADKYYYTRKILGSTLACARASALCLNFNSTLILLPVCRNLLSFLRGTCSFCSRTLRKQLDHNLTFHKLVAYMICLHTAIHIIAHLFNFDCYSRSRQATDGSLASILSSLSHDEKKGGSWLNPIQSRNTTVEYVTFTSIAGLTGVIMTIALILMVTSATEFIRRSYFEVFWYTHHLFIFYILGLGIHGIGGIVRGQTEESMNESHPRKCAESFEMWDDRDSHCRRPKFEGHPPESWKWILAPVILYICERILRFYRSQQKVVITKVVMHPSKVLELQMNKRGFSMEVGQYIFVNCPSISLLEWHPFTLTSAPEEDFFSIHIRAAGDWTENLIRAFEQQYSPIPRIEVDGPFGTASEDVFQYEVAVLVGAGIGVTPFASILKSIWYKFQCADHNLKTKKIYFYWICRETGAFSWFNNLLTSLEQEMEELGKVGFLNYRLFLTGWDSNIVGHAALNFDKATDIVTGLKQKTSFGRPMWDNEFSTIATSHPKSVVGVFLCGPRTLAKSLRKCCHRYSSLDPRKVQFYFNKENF
Chain of Sphingosine 1-phosphate receptor 2 (O95136 whole entry): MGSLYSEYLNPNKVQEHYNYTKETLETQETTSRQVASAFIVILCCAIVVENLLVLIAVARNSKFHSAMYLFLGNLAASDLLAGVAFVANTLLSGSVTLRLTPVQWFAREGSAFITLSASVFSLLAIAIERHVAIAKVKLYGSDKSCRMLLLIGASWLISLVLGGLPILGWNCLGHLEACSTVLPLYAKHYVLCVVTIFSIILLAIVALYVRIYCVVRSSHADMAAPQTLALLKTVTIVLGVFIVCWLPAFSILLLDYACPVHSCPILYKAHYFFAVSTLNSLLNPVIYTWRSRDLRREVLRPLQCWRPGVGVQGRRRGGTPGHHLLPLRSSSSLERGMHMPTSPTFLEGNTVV
Chain of Procathepsin L (P07711 whole entry): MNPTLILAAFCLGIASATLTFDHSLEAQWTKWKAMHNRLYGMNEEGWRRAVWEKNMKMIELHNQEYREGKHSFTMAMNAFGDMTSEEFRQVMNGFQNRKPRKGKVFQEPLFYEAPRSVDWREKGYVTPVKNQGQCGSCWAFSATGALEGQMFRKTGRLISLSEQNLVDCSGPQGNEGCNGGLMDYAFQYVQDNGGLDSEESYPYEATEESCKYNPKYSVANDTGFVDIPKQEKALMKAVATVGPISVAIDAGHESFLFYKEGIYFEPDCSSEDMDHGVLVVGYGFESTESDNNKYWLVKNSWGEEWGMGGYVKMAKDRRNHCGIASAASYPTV

## Cc1cc(C(=O)CSc2nnnn2C)c(C)n1Cc1ccccc1
[1]
  EC50: 30000 nM (not active)

## COc1ccccc1OC(=O)c1sc2ccccc2c1Cl
NADPH oxidase 1
  IC50: > 17000 nM (not active)

## O=C(NC(=S)NC1CC1)c1cccnc1
[2]
  IC50: > 100000 nM (inactive)
[3]
  IC50: > 100000 nM (not active)

## COc1ccc(-c2cc(=O)[nH][nH]2)cc1OC
Procathepsin L
  IC50: > 59600 nM (not active)
Leucine aminopeptidase
  IC50: 7860 nM (active)
Aspartyl aminopeptidase
  IC50: > 73500 nM (not active)
[4]
  AC50: 1010 nM (active)
Protein RecA
  EC50: 380 nM (active)

## O=C(CCl)/N=c1\sccn1Cc1ccc(Cl)cc1Cl
[5]
  IC50: > 80000 nM (inactive)
[6]
  AC50: 2540 nM (active)
[7]
  EC50: 361 nM (active)
[8]
  EC50: 192 nM (active)
[9]
  EC50: < 100 nM (active)
[4]
  AC50: 27200 nM (active)
[10]
  IC50: 235 nM (active)
Paired box protein Pax-8
  AC50: 1360 nM (active)
Protein RecA
  EC50: 15100 nM (active)
cells
  EC50: < 4 nM (active)
Jurkat
  IC50: < 160 nM (active)

## CC1(C)CC(=O)/C(=N/Nc2ccc(Cl)cc2)CO1
[11]
  EC50: 422 nM (active)
[12]
  EC50: 504 nM (active)
[13]
  EC50: 324 nM (active)
H4
  EC50: < 100 nM (active)
[14]
  EC50: 207 nM (active)
